The record followed here is patent US7321059B2, “Compounds for use as surfactants” (Glaxo Group Limited, priority 2001, dated 2008).

Data set [1] is described as follows: Content uniformity by dose through use testing of salmeterol xinafoate HFA 134a MDI formulations. The class given is physicochemical. The conditions noted are these: salmeterol xinafoate 25 mcg per actuation in HFA 134a. The method, then:
Salmeterol xinafoate formulations in HFA 134a, of strength 25 mcg per actuation, and 10% w/w (relative to drug) of the relevant surfactant compound of formula (I) (i.e. Example 3 or Example 4) prepared in aluminum cans with a crimped cap containing a metering valve using salmeterol xinafoate (8.7 mg), HFA 134a (18 g) and the relevant compound (0.87 mg). The control was prepared without the addition of a surfactant. The content uniformity of the formulations was assessed by dose through use testing. Testing was performed on a set of 10 cans/inhalers for each of the formulations, at “beginning of use” (BoU) and “end of use” (EoU). After each inhaler had been primed (4 shots fired to waste), actuations 1 and 2 (BoU) were collected. The next 116 actuations of each inhaler were then fired to waste using an automated method and actuations 119 and 120 (EoU) collected.
In the control there was a rise from beginning to end of use of 5.6 mcg. However, in the presence of the said surfactant compound this rise was reduced to 1.4 mcg for formulations incorporating a compound of Example 3 and 2.8 mcg for formulations incorporating a compound of Example 4. There was also a reduction in the percentage RSD at BoU for the formulations incorporating said surfactant compounds, thereby showing improved can to can reproducibility. Furthermore, there was also a reduction in the percentage RSD at EoU for the formulations incorporating Example 4. The presence of the said surfactants therefore improves the content uniformity of the inhaler.

Data set [2] can be described thus: Deposition of drug on valve and can of salmeterol xinafoate HFA 134a MDI formulations (HPLC). The class given is physicochemical. The conditions noted are these: salmeterol xinafoate 1.50 mg in HFA 134a 3 g, surfactant 0.15 mg (10% w/w relative to drug). How it is done: Salmeterol xinafoate formulations in HFA 134a, strength 25 mcg per dose for each of 60 actuations, and 10% w/w (relative to drug) of the relevant surfactant compound of formula (I) (i.e. Example 3 or Example 4) were prepared in aluminum cans with a crimped cap containing a metering valve using salmeterol xinafoate (1.50 mg), HFA 134a (3 g) and the relevant compound (0.15 mg). The control was prepared without the addition of a surfactant.
Cans containing the said formulations for analysis were cooled to […] to liquefy the propellant therein. These were then opened and the contents collected in a vessel. The valve and the empty can were quantitatively washed. The washings for each component were kept separate. The amount of drug in: the contents removed from the can, the valve washings and the can washing was quantified by HPLC analysis.
Therefore, the presence of said surfactants in formulations seems to reduce the deposition of the drug on the can and valve.

Consider `COCCOCCOCCOCCCOCC(OCCCOCCOCCOCCOC)C(=O)O` (centres unmarked) [Example 3, 17-(4,7,10,13-Tetraoxatetradec-1-yloxy)-2,5,8,11,15-pentaoxaoctadecan-18-oic acid], for which the “BoU Dose % RSD” value in data set [1] (can to can reproducibility at beginning of use, 10% w/w surfactant, 10 cans) worked out at 0.7%. The “EoU Dose % RSD” value in data set [1] (can to can reproducibility at end of use, 10% w/w surfactant, 10 cans) came out at 13.9%. The “EoU − BoU (rise in dose from beginning to end of use)” value in data set [1] (10% w/w surfactant relative to drug) came to 1.4 µg. Also, the “BoU Dose” value in data set [1] (10% w/w surfactant relative to drug, beginning of use, actuations 1 and 2, 10 cans) worked out at 15.8 µg. Also, the “EoU Dose” value in data set [1] (10% w/w surfactant relative to drug, end of use, actuations 119 and 120, 10 cans) turned out to be 17.2 µg. In data set [2] (aluminum can), the “Can Deposition” value was 0.25 mg and the “Valve Deposition” value worked out at 0.33 mg. Further, the “Drug Content In Can” value in data set [2] (contents removed from can) is given as 0.56 mg.
